From patent publication US20030032580A1, “Use of agonists or antagonists of the 5-HT7 receptor to treat disorders of the bladder” (Synaptic Pharmaceutical Corporation, priority 1999, published 2003)

How the values were obtained:
[1] = biological target: T1, 5-HT2B receptor (second phase of the concentration-effect curve to 5-CT in the rat bladder) (Rattus norvegicus, UniProt P30994); assay: Electrically stimulated rat bladder strips: second (low potency) phase of the concentration-effect curve to 5-CT; format: cell-based
T1 construct: from tissue; host or cells: rat urinary bladder detrusor strips
T1 sequence (P30994 whole entry): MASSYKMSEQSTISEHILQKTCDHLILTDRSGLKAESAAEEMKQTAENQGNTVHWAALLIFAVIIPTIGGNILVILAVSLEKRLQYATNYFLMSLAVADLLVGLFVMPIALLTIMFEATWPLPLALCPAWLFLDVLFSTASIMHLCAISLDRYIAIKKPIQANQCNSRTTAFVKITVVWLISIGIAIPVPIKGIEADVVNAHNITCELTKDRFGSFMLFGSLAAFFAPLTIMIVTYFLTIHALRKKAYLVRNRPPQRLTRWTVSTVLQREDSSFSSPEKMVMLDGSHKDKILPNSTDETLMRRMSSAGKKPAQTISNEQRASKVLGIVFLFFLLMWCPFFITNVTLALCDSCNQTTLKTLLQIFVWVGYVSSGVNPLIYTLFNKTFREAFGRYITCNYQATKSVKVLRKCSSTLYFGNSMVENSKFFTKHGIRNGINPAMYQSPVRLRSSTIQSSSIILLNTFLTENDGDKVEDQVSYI

[2] = biological target: T2, 5-HT7 receptor (first phase of the concentration-effect curve to 5-CT in the rat bladder) (Rattus norvegicus, UniProt P32305); assay: Electrically stimulated rat bladder strips: first (high potency) phase of the concentration-effect curve to 5-CT; format: cell-based; conditions: bladder pKB versus published value
T2 construct: from tissue; host or cells: rat urinary bladder detrusor strips
T2 sequence (P32305 whole entry): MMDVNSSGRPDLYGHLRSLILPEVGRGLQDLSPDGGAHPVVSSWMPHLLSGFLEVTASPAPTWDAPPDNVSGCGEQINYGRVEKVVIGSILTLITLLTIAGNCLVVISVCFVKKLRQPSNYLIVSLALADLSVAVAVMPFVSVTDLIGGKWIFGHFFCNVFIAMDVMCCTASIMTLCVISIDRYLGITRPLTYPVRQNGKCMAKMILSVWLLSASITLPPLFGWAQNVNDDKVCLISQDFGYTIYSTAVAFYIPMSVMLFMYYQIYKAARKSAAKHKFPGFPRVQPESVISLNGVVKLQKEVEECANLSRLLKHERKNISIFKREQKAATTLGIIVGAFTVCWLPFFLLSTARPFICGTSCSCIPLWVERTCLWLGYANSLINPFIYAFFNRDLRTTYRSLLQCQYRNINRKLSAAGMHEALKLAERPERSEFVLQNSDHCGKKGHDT

[3] = biological target: T3, human 5-HT7 receptor (Homo sapiens, UniProt P34969); assay: Radioligand binding at cloned 5-HT7 receptor, this study ([3H]serotonin competition); conditions: reference: this study, read-out: pK1 (converted)
T3 construct: host or cells: LM(tk-) mouse fibroblasts, clone L-5HT-4B
T3 sequence (P34969 1-445 isoform P34969-2): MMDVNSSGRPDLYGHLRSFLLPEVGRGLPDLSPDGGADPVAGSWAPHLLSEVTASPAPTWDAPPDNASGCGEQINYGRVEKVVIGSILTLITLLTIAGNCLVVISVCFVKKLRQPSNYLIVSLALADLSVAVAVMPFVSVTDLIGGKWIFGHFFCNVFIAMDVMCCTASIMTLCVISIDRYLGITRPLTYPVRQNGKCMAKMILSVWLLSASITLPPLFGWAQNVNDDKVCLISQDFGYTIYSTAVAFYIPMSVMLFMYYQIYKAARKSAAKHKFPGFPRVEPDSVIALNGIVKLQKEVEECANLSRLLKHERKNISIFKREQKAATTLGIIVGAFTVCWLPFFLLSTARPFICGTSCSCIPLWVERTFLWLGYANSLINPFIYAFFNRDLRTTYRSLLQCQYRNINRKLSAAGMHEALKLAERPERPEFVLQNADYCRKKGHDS
Experimental: The binding of a test compound to a receptor of interest was generally evaluated by competitive binding assays using membrane preparations derived from cells which expressed the receptor. First, conditions were determined which allowed measurement of the specific binding of a compound known to bind to the receptor. Then, the binding of the known compound to the receptor in membrane preparations was evaluated in the presence of several different concentrations of the test compound.
Human Serotonin Receptors. 5-HT1Dα, 5-HT1Dβ, 5-HT1E, 5-HT1F, and 5-HT7 Receptors: The cell lysates of LM(tk-) clonal cell line stably transfected with the genes encoding each of these 5-HT receptor-subtypes were prepared as described above. The cell line for the 5-HT1Dα receptor, designated as Ltk-8-30-84, was deposited on Apr. 17, 1990, and accorded ATCC Accession No. CRL 10421. The cell for the 5-HT1Dβ receptor, designated as Ltk-11, was deposited on Apr. 17, 1990, and accorded ATCC Accession No. CRL 10422. The cell line for the […] receptor, designated 5-HT1E-7, was deposited on Nov. 6, 1991, and accorded ATCC Accession No. CRL 10913. The cell line for the 5-HT1F receptor, designated L-5-HT1F, was deposited on Dec. 27, 1991, and accorded ATCC Accession No. ATCC 10957. […] Nonspecific binding was determined in the presence of 10 μM serotonin. […]

[4] = biological target: cloned rat 5-HT2B receptor (Rattus norvegicus, UniProt P30994); conditions: cited from earlier work
cloned rat 5-HT2B receptor, sequence (P30994 whole entry): as the sequence (P30994 whole entry) above

[5] = biological target: 5-HT1E (Homo sapiens, UniProt P28566); conditions: Adham et al., 1993; cited from earlier work
5-HT1E, sequence (P28566 whole entry): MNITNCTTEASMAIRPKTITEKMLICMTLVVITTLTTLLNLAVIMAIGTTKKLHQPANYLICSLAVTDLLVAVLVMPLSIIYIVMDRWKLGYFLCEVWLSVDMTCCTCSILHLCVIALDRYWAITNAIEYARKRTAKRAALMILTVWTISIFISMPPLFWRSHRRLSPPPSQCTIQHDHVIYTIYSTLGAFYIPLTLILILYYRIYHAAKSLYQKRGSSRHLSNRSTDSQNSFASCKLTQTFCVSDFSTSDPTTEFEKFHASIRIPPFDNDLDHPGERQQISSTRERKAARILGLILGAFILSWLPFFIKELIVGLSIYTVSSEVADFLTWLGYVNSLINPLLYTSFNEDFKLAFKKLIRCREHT

SMILES: COC(=O)[C@H]1[C@H]2C[C@H]3c4[nH]c5ccccc5c4CCN3C[C@H]2CC[C@@H]1O [rauwolscine]
- second-phase affinity greater than affinity for 5-HT1B, 5-HT1E, 5-HT2A and 5-HT2C subtypes ([1]; bladder pKB versus published values): at least 10 fold
- Kb ([1]; inhibition of the second phase of the concentration-effect curve to 5-CT in the rat bladder, read-out: pKB (converted)): 0.0158 µM
- first-phase affinity lower than affinity for the 5-HT2B receptor subtype [2]: more than 10 fold
- Ki [3]: 2.51 µM
- pKB, 5-HT2B ([4]; Wainscott et al., 1993): 7.5
- pK1 ([4]; cloned rat 5-HT2B receptor, reference 1 (Wainscott et al., 1993)): 7.5-7.6
- pKB, 5-HT1E [5]: 5.5
